The values below come from patent publication US7445892B2, “Method of testing anticancer agent-sensitivity of tumor cells” (Eisai Co., Ltd., priority 2000, dated 2008).

For this assay, the system named is HCT116-C9. Put plainly: Gene expression analysis using DNA microarray (GeneChip Hu6800). The assay is classed as cell-based, human. The protocol:
All cells were cultured in RPMI-1640 medium supplemented with 10% of fetal bovine serum, 100 units/ml of penicillin and 100 μg/ml of streptomycin at 37° C. under 5% CO2.
E7070, or ER-35748 or ER-68487 represented by the structural formula shown below was added to the media of an E7070-susceptible strain HCT116-C9 and an E7070-resistant strain HCT116-C9-C1 at a concentration of 8 μM and the cells were cultured. Then, cells were recovered after 0, 3, 6 and 12 hours. Further, the cells were also cultured for 12 hours without adding the drug and recovered.
Total RNA was extracted from these cells and subjected to the subsequent analyses. The RNA extracted from the cells cultured for 12 hours with the drug and the RNA from extracted the cells cultured for 12 hours without the drug were used for the gene expression analysis using a DNA microarray described in Example 2. HCT116-C9 was a substrain isolated from HCT116 derived from human colon cancer (American Type Culture Collection, Manassas, Va., U.S.A.), and HCT116-C9-C1 was an E7070-resistant substrain obtained by culturing this HCT116-C9 in the presence of E7070 with gradually increasing the E7070 concentration.
Total RNA was extracted from the recovered cells by using TRIZOL Reagent (Life Technologies Oriental) according to the attached operation manual.
Each RNA obtained in Example 1 was dissolved in 100 μl of sterilized water treated with diethyl pyrocarbonate (DEPC) and further purified by using RNeasy Column (QIAGEN), and double-stranded cDNA was synthesized by using SuperScript Choice System (Life Technologies Oriental) and a T7-d(T)24 primer.
First, to 10 μg of RNA, 5 μM T7-d(T)24 primer, 1×First strand buffer, 10 mM DTT, 500 μM dNTP mix and 20 units/μl of SuperScript II Reverse Transcriptase were added and the mixture was allowed to react at 42° C. for 1 hour to synthesize single-stranded DNA. Subsequently, to the DNA, 1×Second strand buffer, 200 μM dNTP mix, 67 U/ml of DNA ligase, 270 U/ml of DNA polymerase I and 13 U/ml of RNase H were added and the mixture was allowed to react at 16° C. for 2 hours to synthesize double-stranded cDNA. Further, to the cDNA, 67 U/ml of T4 DNA polymerase I was added and the mixture was allowed to react at 16° C. for 5 minutes and then 10 μl of 0.5 M EDTA was added to terminate the reaction.
The obtained cDNA was purified with phenol/chloroform, and a labeling reaction with biotinylated UTP and CTP was carried out by using RNA Transcript Labeling Kit (Enzo Diagnostics) according to the attached operation manual. The reaction product was purified with Rneasy Column and heated in 200 mM Tris/acetate buffer (pH 8.1), 150 mM magnesium acetate, 50 mM potassium acetate at 94° C. for 35 minutes to obtain fragment cRNA.
The fragmented cRNA was hybridized with GeneChip Hu6800 (Affymetrix) in 100 mM MES, 1 M sodium salt, 20 mM EDTA and 0.01% Tween 20 at 45° C. for 16 hours. After the hybridization, the GeneChip was washed and stained according to the protocol EukGE-WS2 attached to Affymetrix Fluidics Station. For the staining, streptavidin-phycoerythrin and biotinylated goat anti-streptavidin antibody were used. The stained GeneChip was scanned by using HP Argon Ion Laser Confocal Scanner (Hewlett Packard) to measure its fluorescence intensity. The fluorescence was measured at 570 nm by using an excitation light at 488 nm.
The quantitative data analyses were all conducted by using GeneChip Software (Affymetrix). To quantify RNA, an average of “differences [(Perfect match hybridization signal)−(Mismatch signal)]” was obtained for each probe family.
E7070, or ER-35748 or ER-68487 was added to a medium for HCT116-C9 at a concentration of 8 μM and culture was performed. The results of analysis of RNA extracted from the cells at 12 hours by using GeneChip were compared with the results of RNA analysis for HCT116-C9 cells obtained in the same manner except for not adding the drug. […]

Setting [1] is: HCT116-C9, 8 μM, 12 hours, compared with cells without drug, change of 1.8 times or more counted.

Regarding `NS(=O)(=O)c1ccc(S(=O)(=O)Nc2cccc3c(Cl)c[nH]c23)cc1` [E7070, N-(3-chloro-7-indolyl)-1,4-benzenedisulfonamide], where the note is “HCT116-C9, 8 μM for 12 hours”, the “enhancement of expression of the genes listed in Table 3” value is listed as at least 1.8 times and the “inhibition of expression of the genes listed in Table 4” value is reported as at least 1.8 times. Under setting [1], the “expression levels of the genes listed in Table 1” value is reported as “increased” and the “expression levels of the genes listed in Table 2” value is recorded as “decreased”.
